# Laboratory results: PubChem BioAssay (NCI)
# “And” between values parts separate entries of the source, which are not always exact repeats. Identical values can stand only once.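 Interpolation was linear, between the two tested concentrations surrounding the appropriate level; five concentrations were tested over 48 hours in 96-well plates. The concentration for 50% growth inhibition is given as GI50. TGI is the concentration that stops growth completely.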
# Assays:
# Test in all cases: inhibition of tumour cell growth, NCI panel, 48 h
# [1] = system: SN12C renal
# [2] = system: OVCAR-3 ovarian
# [3] = system: DLD-1 colon
# [4] = system: 786-0 renal
# [5] = system: ACHN renal
# [6] = system: HCT-15 colon
# [7] = system: DMS 114 small cell lung
# [8] = system: MOLT-4 leukemia
# [9] = system: MALME-3M melanoma
# [10] = system: BT-549 breast
Structure (SMILES),TGI [1] [µM],TGI [2],TGI [3] [µM],TGI [4],TGI [5] [µM],TGI [6] [µM],TGI [7] [µM],TGI [8],TGI [9],GI50 [1],GI50 [2],GI50 [4],GI50 [10],TGI [10],GI50 [5],GI50 [6],GI50 [9],GI50 [8]
NC(=O)C12CC3CC(CC(Br)(C3)C1)C2,> 100,> 100 µM,> 100,> 100 µM,> 100,> 100,> 100,> 100 µM,,,,,,,,,,
COc1ccc(-c2onc(-c3c(C)cc(C)cc3C)c2C2=NCCN2)cc1,> 100,,> 100,> 100 µM,> 100,> 100,,> 100 µM,74.1 µM,,,,,,,,,
CCC1C(=O)OCc2c1cc1n(c2=O)C(CC)c2c-1nc1ccccc1c2Cl (configuration not stated),,47.5 µM,> 100,33.9 µM,> 100,> 100,,> 100 µM,> 100 µM,,,,,,,,,
CCCCCCCCCCCCCP(=O)(NCC(N)=O)OCC (configuration not stated),34.3,28.9 µM,32.7,29 µM,47.9,36,33.4,,32.6 µM,,,,,,,,,
COC(=O)C#CCC1CCCC1C1SCCS1 (configuration not stated),> 100,> 100 µM,> 100,> 100 µM,> 100,,> 100,75.6 µM,> 100 µM,,,,,,,,,
O=C(NCC(=O)N1CCOC1=O)OCc1ccccc1,> 100,> 100 µM,> 100,> 100 µM,> 100,> 100,> 100,> 100 µM,,,,,,,,,,
CCOC(=O)C1=C(C)N2C(=NC3=C(CCC/C3=C\c3ccc(Cl)cc3)C2c2ccc(Cl)cc2)S1 (configuration not stated),21.6,5.61 µM,,4.74 µM,33.6,4.84,,9.27 µM,35.5 µM,3.55 µM,2.36 µM,2 µM,1.53 µM,3.52 µM,3.64 µM,2.15 µM,11.3 µM,3.06 µM
C=CCCCOC1[C@H](OCc2ccccc2)C(OCc2ccccc2)C(OC)O[C@@H]1CNC(=O)c1cccc(I)c1 (some centres not stated),> 100,> 100 µM,,> 100 µM,> 100,> 100,,> 100 µM,> 100 µM,8.53 µM,6.46 µM,3.78 µM,8.79 µM,> 100 µM,5.76 µM,3.55 µM,5.43 µM,1.9 µM
N#CC(C#N)=C(N)/C(C#N)=C/c1ccc2[nH]ccc2c1,> 100,> 100 µM,,> 100 µM,> 100,> 100,> 100,> 100 µM,> 100 µM,,,,,> 100 µM,,,,
Cc1c2ccncc2c(C)c2c1c1cc(CO)ccc1n2C,5.35,2.32 µM,,5.07 µM,9.39,10,,2.13 µM,2.51 µM,0.442 µM,0.498 µM,0.596 µM,1.73 µM,7.84 µM,0.362 µM,0.354 µM,0.622 µM,0.368 µM
NS(=O)(=O)c1cccc(-c2ccc3c(NC(=O)C4CC4)n[nH]c3c2)c1,> 25,> 17.6 µM,,> 25 µM,> 25,> 25,,> 25 µM,> 25 µM,> 21.1 µM,6.71 µM,24.3 µM,> 21 µM,> 25 µM,> 25 µM,> 25 µM,> 19.8 µM,19.2 µM
Nc1n[nH]c(N)c1N=Nc1ccc(O)cc1,> 100,69.7 µM,,> 100 µM,61.1,90.6,,91 µM,60.3 µM,23.3 µM,22.7 µM,26.3 µM,14 µM,63.5 µM,15.6 µM,24.2 µM,24.6 µM,13.5 µM
Cc1cc(C)nc(NS(=O)(=O)c2ccc(NC(=O)c3cccn4c(=O)c5ccccc5nc34)cc2)n1,> 100,,> 100,> 100 µM,> 100,> 100,,> 100 µM,,,,,,,,,,
COc1ccc2c(c1)/C(=C\c1c[nH]c3ccc(OC)cc13)C(=O)N2,12.6,13.6 µM,,17.6 µM,12.4,12.9,,8.14 µM,22.9 µM,3.07 µM,3.65 µM,5.35 µM,2.31 µM,9.1 µM,2.93 µM,2.97 µM,8.52 µM,2.95 µM
O=c1c(O)cccn1CCCN(CCCn1cccc(O)c1=O)CCn1cccc(O)c1=O,> 100,> 100 µM,,> 100 µM,> 100,> 100,,> 100 µM,85.9 µM,3.41 µM,3.39 µM,7.81 µM,10.5 µM,> 100 µM,7.15 µM,10.3 µM,9.72 µM,1.79 µM
O=C1CSC(c2ccccc2O)N1c1nnc(Cn2ccnc2)o1 (configuration not stated),> 100,16.4 µM,,> 100 µM,> 100,> 100,,> 100 µM,26.2 µM,12.8 µM,3.04 µM,7.8 µM,6.26 µM,29.2 µM,4.96 µM,3.04 µM,4.43 µM,5.23 µM
CCN1C(=O)N(CC)C2C1NN=c1s/c(=C\c3ccc[nH]3)c(=O)n12 (configuration not stated),> 100,0.948 µM,,> 100 µM,> 100,> 100,,> 100 µM,> 100 µM,0.991 µM,0.279 µM,0.614 µM,0.834 µM,> 100 µM,0.538 µM,0.337 µM,0.546 µM,0.543 µM
CC(=O)O.CC(=O)O.CC(=O)O.CC(=O)O.[Rh].[Rh],> 100,> 100 µM,,> 100 µM,> 100,83.9,,47 µM,37.4 µM,40.3 µM,26.1 µM,34.8 µM,29.5 µM,90.3 µM,24.9 µM,28.5 µM,7.06 µM,22.6 µM
O=C(O)[C@@H](NS(=O)(=O)c1ccc2ccccc2c1)c1ccccc1,> 100,,> 100,> 100 µM,> 100,> 100,,> 100 µM,> 100 µM,,,,,,,,,
COc1cc2c(c(OC)c1OC)-c1c(cc3c(c1OC)OCO3)CC(C)C(C)(O)C2OC(=O)c1ccccc1 (configuration not stated),> 100,> 100 µM,,> 100 µM,> 100,> 100,,29.3 µM,> 100 µM,,,,,> 100 µM,,,,
COc1cccc(CC(C)=C(c2ccc(OCCCN(C)C)cc2)c2ccc(OCCCN(C)C)cc2)c1,1.22,1.2 µM,,0.771 µM,0.991,0.95,,1.11 µM,0.774 µM,0.533 µM,0.545 µM,0.416 µM,3.09 µM,6.42 µM,0.501 µM,0.478 µM,0.403 µM,0.502 µM
O=c1cccc(C#CC#CCCCO)o1,16.7,4.94 µM,,14 µM,24.9,5.3,,> 28.8 µM,3.78 µM,5.21 µM,1.93 µM,5.27 µM,7.95 µM,23.6 µM,12.4 µM,2.11 µM,0.788 µM,4.82 µM
Cc1oc2c(c1C(=O)N1CC[C@@H](N)C1)C(=O)c1c(c(O)c3ccccc3c1O)C2=O,11,9.5 µM,,17.3 µM,11.1,11.9,,1.96 µM,7.62 µM,1.3 µM,2.68 µM,3.93 µM,8.83 µM,22.5 µM,0.629 µM,1.49 µM,1.78 µM,0.304 µM
O=C1CCC(N2C(=O)c3cccc(NCCCC4CCN(CCNC(=O)c5cc6c(o5)C(=O)c5ccccc5C6=O)CC4)c3C2=O)C(=O)N1 (configuration not stated),0.806,0.761 µM,,3.17 µM,2.56,2.41,,13.8 µM,0.284 µM,0.252 µM,0.218 µM,1.44 µM,0.636 µM,2.15 µM,1.29 µM,0.825 µM,0.14 µM,1.93 µM
O=S(=O)(NC1=NCCN1C(=S)SN1CCn2c1nsc2=S)c1cccc(OC(F)(F)F)c1,26.7,16.4 µM,,27.1 µM,26.3,22.4,,10.8 µM,23.3 µM,11.3 µM,5.07 µM,12 µM,25.7 µM,> 100 µM,13.5 µM,10.5 µM,6.75 µM,2.71 µM
C=CCn1c(=O)c2cnc(Nc3ccc(N4CCN(C)CC4)cc3)nc2n1-c1cccc(C(C)(C)O)n1,> 100,0.9 µM and 1.47 µM,,9.71 µM and > 10 µM,> 100,> 67.1,,18.1 µM and 4.26 µM,18.4 µM and > 10 µM,0.855 µM and 0.479 µM,0.241 µM and 0.331 µM,0.377 µM and 0.362 µM,0.437 µM and 0.383 µM,6.01 µM and > 6.27 µM,0.075 µM and 0.226 µM,0.682 µM and 0.601 µM,1.73 µM and 0.593 µM,0.348 µM and 0.333 µM
